Results as given in US6818413B2, “Fluorescence-based high throughput screening assays for protein kinases and phosphatases” (Pharmacia and Upjohn Company, priority 1997, dated 2004).

Target: MBL Monoclonal anti-phosphotyrosine antibody (clone 6D12)
Assay: Competitive displacement of P-Tyr-F from MBL antibody, fluorescence quenching
Assay type: binding
Conditions: displacement of P-Tyr-F 1.7 nM from MBL antibody 7.1 nM sites, nM sites (normality), read-out: MBL Monoclonal Kd, nM Φ
Method: FIGS. 5A and 5B: […] MBL antibody, 7.1 nM sites and P-Tyr-F, 1.7 nM were preincubated, and displacement initiated by the addition of a concentrated solution of phosphotyrosine. The increase in emission intensity and decrease in FP were monitored as a function of added phosphoryltyrosine. The data were analyzed as described in FIG. 3. FIGS. 7A, 7B, 7C, and 7D: FIGS. 7A, 7B, 7C, and 7D are graphs showing the competitive displacement of P-Tyr-F from MBL antibody by phosphorylated JAK-2 peptide substrates JAK-2(a) (FIGS. 7A and 7B) and JAK-2(b) (FIGS. 7C and 7D). All procedures were as described in FIG. 5. For both peptides, fixed antibody=7.1 nM sites and P-Tyr-F=1.7 nM. Antibody binding to the fluoresceinated phosphorylamino acids was monitored by adding successive small volumes of the antibody stock solution to a cuvette containing a fixed amount of fluoresceinated phosphorylamino acid in two milliliters of pH 7.4 buffer (25 mM Tris and 25 mM NaCl adjusted to pH 7.4 with HCl). The fluorescence polarization, anisotropy, and the intensity—the sum of vertically and horizontally polarized emissions—were recorded one minute after each addition. The dilution produced by the addition of the antibody necessitated a slight correction for both the concentrations and the intensity readings but not for the polarization since the latter is independent of the fluorophore concentration. […]

NC(Cc1ccc(OP(=O)(O)O)cc1)C(=O)O (stereo not shown) [Phosphoryltyrosine]
Kd: 5.4 ± 0.5 nM
